Source: patent publication US8394742B2, “Methods, compounds and compositions with genotype selective anticancer activity” (The Translation Genomics Research Institute, priority 2005, dated 2013)

Assays:
[1] = system: pancreatic cancer cell lines; assay: MTS cell proliferation assay, panel of pancreatic cancer cell lines; type: cell-based, human
Protocol: (§1) The inhibition of cell proliferation by library compounds was evaluated using the CellTiter 96 Non-Radioactive Cell Proliferation Assay following the protocol recommended by the manufacturer (Promega, Madison Wis.). Briefly, 2000 cells were seeded in each well of 96-well plates in 90 μl growth medium. Cells were allowed to attach overnight followed by addition of 10 μl of serially diluted compounds into the plates. After incubation for 4 days at 37° C. in a humidified incubator, 20 μl of a 20:1 mixture of (3-(4,5-dimethylthiazol-2-yl)-5-(3-carboxymethoxyphenyl)-2-(4-sulfophenyl)-2H-tetrazolium, inner salt (MTS, 2 mg/ml) and an electron coupling reagent, phenazine methosulfate (PMS, 0.92 mg/ml), was added to each well and incubated for 3 hours at 37° C. Absorbance was then measured using the Wallace Victor microplate reader at 490 nm (PerkinElmer, Wellesley, Mass.). Data were expressed as the percentage of cell growth calculated from the absorbance corrected for background absorbance. The surviving fraction of cells was determined by dividing the mean absorbance values of the treated samples by the mean absorbance values of the DMSO control.
Applicants further examined the anti-proliferative activity of UA62001 in a panel of cell lines including normal cell lines which have wildtype DPC4 and pancreatic cancer lines with either wildtype DPC4 or inactivated DPC4 (Table 1). […]

BxPC-3 cells = assay: Cell cycle distribution analysis (propidium iodide, flow cytometry); type: cell-based, human; conditions: BxPC-3, 25 μM
Protocol: Cells (5×10^5) were plated in a T-25 tissue culture flask 24 hours prior to the drug treatment. […] After the treatment, the cells were harvested by trypsinization and centrifugation and then stained with propidium iodide (Sigma) in a modified Krishan buffer (20) for 4 hours at 4° C. The PI stained samples were then analyzed with a FACScan flow cytometer (BD Immunocytometry systems, San Jose, Calif.). Histograms were analyzed for cell cycle compartments and the percentage of cells at each phase of the cell cycle was calculated using CellQuest (BD Immunocytometry systems) analysis software.

IMR-90 = assay: MTS cell proliferation assay, IMR-90 normal fibroblasts; type: cell-based, human; conditions: IMR-90, even at 200 μM
Protocol: as §1
(§2) After generating the isogenic cell lines for the DPC4 gene, Applicants then carried out a screening process using the cell lines with the aim to identify compounds that selectively kill cells with deficient DPC4 function. […]

HS766T (DPC4 deleted) = assay: MTS cell proliferation assay, HS766T cells; type: cell-based; conditions: Homo sapiens
Protocol: as §1, §2

caspase-3 = assay: Caspase-3 activation analysis by Western blot; type: cell-based, human; conditions: BxPC-3-vector and BxPC-3-DPC4 cells, 25 μM, 24 hours
Protocol: FIG. 5A provides a graphic depiction of the Annexin V staining. The percentage of cells in the indicated M1 region was 4.6% in the untreated control and 8.2%, in the UA62001-treated (25 μM, 24 hours) BxPC-3 cells. FIG. 5B provides an image of the activation of pro-caspase-3 in BxPC-3 cells after UA62001 treatment. Whole cell extracts were prepared from BxPC-3-vector and BxPC-3-DPC4 cells after UA62001 (25 μM, 24 hours) treatment. Each lane was loaded with 20 μg of total protein. Camptothecin treated Jurkat cell lysate (20 μg) was loaded as the positive control. Lane 1, BxPC-3-DPC4; lane 2, BxPC-3-DPC4-UA62001; lane 3, BxPC-3-vector; lane 4, BxPC-3-vector-UA62001; lane 5, Jurkat-camptothecin.
Whole cell extracts were prepared using Nonidet P-40 (NP-40) lysis buffer (1% IGEPAL CA-630, a substitute for NP-40, 150 mM NaCl, 50 mM Tris-HCl [pH 7.4], 2 mM EDTA). […] Protein concentrations of the lysates or fractionates were determined using the BCA reagents (PIERCE). […] DPC4 protein was detected by a monoclonal antibody (Oncogene Research Products, Boston, Mass.). p21 protein was detected by a polyclonal antibody (Cell Signaling Technology, Beverly, Mass.). Both active and proto-form of the caspas-3 were detected by a polyclonal antibody obtained from BD Pharmingen (BD Biosciences Pharmingen, San Diego, Calif.). β-Actin, which served as a loading control was detected by a monoclonal antibody (Sigma). […]

## O=C1c2ccccc2C(=O)c2c1ccc1c(=O)n(-c3ccccc3)[nH]c21 [UA62001, 2-phenyl-1H-Naphth [2,3-g]indazole-3,6,11(2H)-trione]
[1]
  IC50 values in pancreatic cancer cell lines: low μM
BxPC-3 cells; 24 hours, control 33.6%
  cell population in S phase: 55.6%
BxPC-3 cells; 48 hours, control 28.6%
  cell population in S phase: 59.5%
BxPC-3 cells; 72 hours, control 17.0%
  cell population in S phase: 57.4%
BxPC-3 cells; untreated control ~10%
  G2/M phase population: ~20%
IMR-90
  growth inhibition: little growth inhibition
HS766T (DPC4 deleted)
  IC50: 3.1 µM
caspase-3
  cleavage of proto-form of caspase-3: did not induce the cleavage
